Source: patent US20260256929A1, “PROTEASE/ENZYME CLEAVABLE LINKER-PAYLOADS AND PROTEIN CONJUGATES” (priority 2022, published 2026)
pEC50: −log10 of the molar value. Like-named read-outs stand apart in the source and are kept apart here.

Legend:
Type in all cases: cell-based
MDA-MB-231 = assay: Free drug cell killing activity (cell proliferation assay, Cell Titer-Glo); conditions: for pEC50: Homo sapiens
[1] = system: panel of breast cancer and lung cancer cell lines; assay: Free drug cell killing activity across the whole panel; conditions: all the cell lines tested (Table 2), 120 hours; read-out: EC50 values ranging over all the cell lines tested
Description: (§1) The in vitro cell killing activity of exatecan, gly-exatecan, and hemiasterlin were evaluated in a panel of breast cancer and lung cancer cell lines.
MDA-MB-361, SKBR3, BT20, HCC38, HCC1143, HCC1937, JIMT1, MCF-7, A549, NCI-H441, NCI-H520, NCI-H1703, NCI-H1975, NCI-H2110, NCI-H226, NCI-H292, NCI-H358 cells were purchased from ATCC (American Type Culture Collection, Manassas, VA, USA). All the cell lines were maintained in DMEM/F12 (1:1), high glucose (Corning, Corning, NY) supplemented with 10% heat-inactivated fetal bovine serum (Thermo Scientific, Grand Island, NY), 2 mM glutamax (Thermo Scientific, Grand Island, NY), and 1× Penicillin/Streptomycin (Corning, Corning, NY). Cytotoxicity effect of the Exatecan warhead was measured with a cell proliferation assay. Cells were seeded in a 384-well flat bottom white polystyrene plate at 625 cells/25 uL the day before the actual assay starts. Exatecan was formulated at 2× starting concentration in cell culture medium, serial diluted (1:3) under sterile conditions and added onto cells in triplicates. Plates were cultured at 37° C. in a CO2 incubator for 120 hours. […] Relative luminescence was measured on an ENVISION® plate reader (Perkin-Elmer; Waltham, MA). Relative luminescence readings were converted to % viability using untreated cells as controls. […]

NCI-H2343 = assay: Free drug cell killing activity (cell proliferation assay, Cell Titer-Glo)
MDA-MB-361 = assay: as above; conditions: for pEC50: Homo sapiens
Description: as §1
(§2) MDA-MB-361, SKBR3, BT20, HCC38, HCC1143, HCC1937, JIMT1, MCF-7, A549, NCI-H441, NCI-H520, NCI-H1703, NCI-H1975, NCI-H2110, NCI-H226, NCI-H292, NCI-H358 cells were purchased from ATCC (American Type Culture Collection, Manassas, VA, USA). All the cell lines were maintained in DMEM/F12 (1:1), high glucose (Corning, Corning, NY) supplemented with 10% heat-inactivated fetal bovine serum (Thermo Scientific, Grand Island, NY), 2 mM glutamax (Thermo Scientific, Grand Island, NY), and 1× Penicillin/Streptomycin (Corning, Corning, NY). Cytotoxicity effect of the Exatecan warhead was measured with a cell proliferation assay. Cells were seeded in a 384-well flat bottom white polystyrene plate at 625 cells/25 uL the day before the actual assay starts. Exatecan was formulated at 2× starting concentration in cell culture medium, serial diluted (1:3) under sterile conditions and added onto cells in triplicates. Plates were cultured at 37° C. in a CO2 incubator for 120 hours. For cell viability measurement, 30 microliter of Cell Titer-Glo® reagent (Promega Corp, Madison, WI) was added into each well, and plates processed as per product instructions. Relative luminescence was measured on an ENVISION® plate reader (Perkin-Elmer; Waltham, MA). Relative luminescence readings were converted to % viability using untreated cells as controls. Data was fitted with non-linear regression analysis, using log (inhibitor) vs. response, variable slope, 4-parameter fit equation using GraphPad Prism.

NCI-H520 = assay: as above; conditions: NCI-H520, 120 hours; for pEC50: Homo sapiens
Description: as §1, §2

JIMT1 = assay: as above; conditions: for pEC50: Homo sapiens
Description: as §1, §2

NCI-H441 = assay: as above; conditions: for pEC50: Homo sapiens
Description: as §1, §2

BT20 = assay: as above; conditions: for pEC50: Homo sapiens
Description: as §1, §2

MCF-7 = assay: as above; conditions: for pEC50: Homo sapiens
Description: as §1, §2

A549 = assay: as above; conditions: for pEC50: Homo sapiens
Description: as §1, §2

NCI-H292 = assay: as above; conditions: for pEC50: Homo sapiens
Description: as §1, §2

HCC1937 = assay: as above; conditions: for pEC50: Homo sapiens
Description: as §1, §2

SKBR3 = assay: as above; conditions: for pEC50: Homo sapiens
Description: as §1, §2

NCI-H226 = assay: as above; conditions: for pEC50: Homo sapiens
Description: as §1, §2

HCC38 = assay: as above; conditions: for pEC50: Homo sapiens
Description: as §1, §2

NCI-H1975 = assay: as above; conditions: for pEC50: Homo sapiens
Description: as §1, §2

NCI-H1703 = assay: as above; conditions: for pEC50: Homo sapiens
Description: as §1, §2

NCI-H2110 = assay: as above
Description: as §1, §2

NCI-H358 = assay: as above; conditions: for pEC50: Homo sapiens
Description: as §1, §2

HCC1143 = assay: as above; conditions: for pEC50: Homo sapiens
Description: as §1, §2

MDA-MB-468 = assay: as above; conditions: for pEC50: Homo sapiens

CC[C@@]1(O)C(=O)OCc2c1cc1n(c2=O)Cc2c-1nc1cc(F)c(C)c3c1c2[C@@H](N)CC3 [Exatecan, exatecan]
pEC50 (MDA-MB-231; MDA-MB-231, 120 h): 9.08 | Span (%) (MDA-MB-231; MDA-MB-231, 120 hours): 64% | pEC50 [1]: 8.38 to 9.49 | pEC50 (NCI-H2343; 120 h): 7.92 | Span (%) (NCI-H2343; NCI-H2343, 120 hours): 70% | pEC50 (MDA-MB-361; MDA-MB-361, 120 h): 8.92 | Span (%) (MDA-MB-361; MDA-MB-361, 120 hours): 96% | pEC50 (NCI-H520): 9.22 | Span (%) (NCI-H520): 96% | pEC50 (JIMT1; JIMT-1, 120 h): 8.80 | Span (%) (JIMT1; JIMT1, 120 hours): 98% | pEC50 (NCI-H441; NCI-H441, 120 h): 9.49 | Span (%) (NCI-H441; NCI-H441, 120 hours): 93% | Span (%) (BT20; BT20, 120 hours): 96% | pEC50 (BT20; BT-20, 120 h): 9.04 | pEC50 (MCF-7; MCF7, 120 h): 8.92 | Span (%) (MCF-7; MCF-7, 120 hours): 83% | Span (%) (A549; A549, 120 hours): 96% | pEC50 (A549; A549, 120 h): 8.92 | pEC50 (NCI-H292; NCI-H292, 120 h): 9.44 | Span (%) (NCI-H292; NCI-H292, 120 hours): 98% | Span (%) (HCC1937; HCC1937, 120 hours): 94% | pEC50 (HCC1937; HCC1937, 120 h): 8.46 | pEC50 (SKBR3; SK-BR-3, 120 h): 9.41 | Span (%) (SKBR3; SKBR3, 120 hours): 96% | pEC50 (NCI-H226; NCI-H226, 120 h): 8.97 | Span (%) (NCI-H226; NCI-H226, 120 hours): 98% | Span (%) (HCC38; HCC38, 120 hours): 96% | pEC50 (HCC38; HCC38, 120 h): 9.42 | pEC50 (NCI-H1975; NCI-H1975, 120 h): 9.06 | Span (%) (NCI-H1975; NCI-H1975, 120 hours): 90% | pEC50 (NCI-H1703; NCI-H1703, 120 h): 8.96 | Span (%) (NCI-H1703; NCI-H1703, 120 hours): 93% | pEC50 (NCI-H2110; NCI-H2110, 120 h): 9.21 | Span (%) (NCI-H2110; NCI-H2110, 120 hours): 91% | pEC50 (NCI-H358; NCI-H358, 120 h): 9.28 | Span (%) (NCI-H358; NCI-H358, 120 hours): 96% | Span (%) (HCC1143; HCC1143, 120 hours): 76% | pEC50 (HCC1143; HCC1143, 120 h): 9.07 | pEC50 (MDA-MB-468; MDA-MB-468, 120 h): 9.23 | Span (%) (MDA-MB-468; MDA-MB-468, 120 hours): 97%

CC[C@@]1(O)C(=O)OCc2c1cc1n(c2=O)Cc2c-1nc1cc(F)c(C)c3c1c2[C@@H](NC(=O)CN)CC3 [Gly-exatecan, gly-exatecan]
pEC50 (MDA-MB-231; MDA-MB-231, 120 hours, read-out: EC50): 8.42 | Span (%) (MDA-MB-231; MDA-MB-231, 120 hours): 60% | pEC50 [1]: 7.36 to 8.42 | Span (%) (NCI-H2343; NCI-H2343, 120 hours): 55% | pEC50 (NCI-H2343; NCI-H2343, 120 hours, read-out: EC50): 7.52 | pEC50 (MDA-MB-361; MDA-MB-361, 120 hours, read-out: EC50): 8.35 | Span (%) (MDA-MB-361; MDA-MB-361, 120 hours): 98% | pEC50 (NCI-H520): 7.96 | Span (%) (NCI-H520): 80% | pEC50 (JIMT1; JIMT-1, JIMT1, 120 hours, read-out: EC50): 7.82 | Span (%) (JIMT1; JIMT1, 120 hours): 70% | pEC50 (NCI-H441; NCI-H441, 120 hours, read-out: EC50): 8.29 | Span (%) (NCI-H441; NCI-H441, 120 hours): 90% | Span (%) (BT20; BT20, 120 hours): 92% | pEC50 (BT20; BT-20, BT20, 120 hours, read-out: EC50): 7.68 | pEC50 (MCF-7; MCF7, MCF-7, 120 hours, read-out: EC50): 8.06 | Span (%) (MCF-7; MCF-7, 120 hours): 75% | Span (%) (A549; A549, 120 hours): 90% | pEC50 (A549; A549, 120 hours, read-out: EC50): 7.36 | pEC50 (NCI-H292; NCI-H292, 120 hours, read-out: EC50): 8.40 | Span (%) (NCI-H292; NCI-H292, 120 hours): 94% | Span (%) (HCC1937; HCC1937, 120 hours): 87% | pEC50 (HCC1937; HCC1937, 120 hours, read-out: EC50): 7.46 | pEC50 (SKBR3; SK-BR-3, SKBR3, 120 hours, read-out: EC50): 8.38 | Span (%) (SKBR3; SKBR3, 120 hours): 95% | pEC50 (NCI-H226; NCI-H226, 120 hours, read-out: EC50): 7.64 | Span (%) (NCI-H226; NCI-H226, 120 hours): 99% | Span (%) (HCC38; HCC38, 120 hours): 93% | pEC50 (HCC38; HCC38, 120 hours, read-out: EC50): 8.21 | pEC50 (NCI-H1975; NCI-H1975, 120 hours, read-out: EC50): 7.37 | Span (%) (NCI-H1975; NCI-H1975, 120 hours): 84% | pEC50 (NCI-H1703; NCI-H1703, 120 hours, read-out: EC50): 7.60 | Span (%) (NCI-H1703; NCI-H1703, 120 hours): 91% | Span (%) (NCI-H2110; NCI-H2110, 120 hours): 89% | pEC50 (NCI-H2110; NCI-H2110, 120 hours, read-out: EC50): 8.04 | pEC50 (NCI-H358; NCI-H358, 120 hours, read-out: EC50): 8.12 | Span (%) (NCI-H358; NCI-H358, 120 hours): 95% | Span (%) (HCC1143; HCC1143, 120 hours): 76% | pEC50 (HCC1143; HCC1143, 120 hours, read-out: EC50): 7.85 | pEC50 (MDA-MB-468; MDA-MB-468, 120 hours, read-out: EC50): 8.28 | Span (%) (MDA-MB-468; MDA-MB-468, 120 hours): 91%
